Measurements reported in paper PMC8621456, “New Investigations with Lupane Type A-Ring Azepane Triterpenoids for Antimycobacterial Drug Candidate Design” (International Journal of Molecular Sciences, 2021).
Converted amounts (≈) assume the structure as drawn. Like-named read-outs stand apart in the source and are kept apart here.

Key:
[1] = test system: M. tuberculosis H37Rv; assay: microbe, parasite or virus in culture; assay type: cell-based; conditions: Mycobacterium tuberculosis, read-out: MIC (µM) H37Rv
[2] = test system: M. abscessus (ATCC 19977); assay: MIC determination against NTM strains, microbroth dilution; assay type: cell-based, Mycobacterium abscessus; conditions: Mycobacteroides abscessus
[3] = test system: M. avium (ATCC 25291); assay: as above; assay type: cell-based; conditions: Mycobacterium avium, ATCC25291; NTM strain
[4] = test system: M. avium complex (ATCC 700,891 MAC 101); assay: Ex vivo efficacy in infected THP-1 macrophages; assay type: cell-based; conditions: Mycobacterium avium
[5] = test system: M. abscessus (ATCC 19977); assay: Ex vivo efficacy in infected THP-1 macrophages; assay type: cell-based, Mycobacterium abscessus; conditions: Mycobacteroides abscessus
[6] = test system: M. tuberculosis H37Rv; assay: Fractional inhibitory concentration (FIC), checkerboard with standard of care drugs; assay type: cell-based, Mycobacterium tuberculosis
[7] = test system: MTB H37Rv; conditions: ref [26]; cited from earlier work
[8] = ATCC19977, read-out: MIC (µM) M. abscessus 19977
[9] = ATCC700, THP-1, read-out: M. avium Ex Vivo Efficacy (>90% Inhibition µM)
[10] = ATCC19977, THP-1, read-out: M. abscessus Ex Vivo Efficacy (>90% Inhibition µM)
[11] = ATCC19977, NTM strain, read-out: MIC (µM) M. abscessus 19977
[12] = ATCC700, infected THP-1 macrophages, concentration for >90% inhibition, read-out: M. avium Ex Vivo Efficacy (>90% Inhibition µM)
[13] = ATCC19977, infected THP-1 macrophages, concentration for >90% inhibition, read-out: M. abscessus Ex Vivo Efficacy (>90% Inhibition µM)

C=C(C)[C@@H]1CC[C@]2(COC(=O)c3ccccc3C(=O)O)CC[C@]3(C)[C@H](CC[C@@H]4[C@@]5(C)CCCNC(C)(C)[C@@H]5CC[C@]43C)[C@@H]12 [Compound 4]
MIC [1]: 16 µM (≈ 9.44 µg/mL) | MIC [2, 8]: 16 µM (≈ 9.44 µg/mL) | MIC [3]: 4 µM (≈ 2.36 µg/mL)

C=C(C)[C@@H]1CC[C@]2(C(=O)N3CCN(C)CC3)CC[C@]3(C)[C@H](CC[C@@H]4[C@@]5(C)CCCNC(C)(C)[C@@H]5CC[C@]43C)[C@@H]12 [Compound 9]
MIC [1]: ≤ 4 µM | MIC [2, 8]: ≤ 4 µM | MIC [3]: 4 µM (≈ 2.15 µg/mL) | IC90 [4, 9]: > 128 µM | IC90 [5, 10]: > 128 µM | FIC value with Ethambutol [6]: 2.5 Indifferent | FIC value with Rifampin [6]: 1.5 Indifferent

C=C(C)[C@@H]1CC[C@]2(COC(=O)c3cccnc3)CC[C@]3(C)[C@H](CC[C@@H]4[C@@]5(C)CCCNC(C)(C)[C@@H]5CC[C@]43C)[C@@H]12 [Compound 5]
MIC [1]: 8 µM (≈ 4.37 µg/mL) | MIC [2, 8]: 16 µM (≈ 8.75 µg/mL) | MIC [3]: 1 µM (≈ 0.547 µg/mL) | IC90 [4, 9]: 32 µM | IC90 [5, 10]: > 128 µM

CO[C@H]1/C=C/O[C@@]2(C)Oc3c(C)c(O)c4c(O)c(c(/C=N/N5CCN(C)CC5)c(O)c4c3C2=O)NC(=O)/C(C)=C\C=C\[C@H](C)[C@H](O)[C@@H](C)[C@@H](O)[C@@H](C)[C@H](OC(C)=O)[C@@H]1C [Rifampin, reference compound]
MIC [1]: ≤ 0.004 µM | MIC [3]: 0.0625 µM (≈ 0.0514 µg/mL)

CC(=O)[C@@H]1CC[C@]2(COS(=O)(=O)c3ccc(C)cc3)CC[C@]3(C)[C@H](CC[C@@H]4[C@@]5(C)CCCNC(C)(C)[C@@H]5CC[C@]43C)[C@@H]12 [Compound 13]
MIC [1]: 32 µM (≈ 19.1 µg/mL) | MIC [2, 11]: 16 µM (≈ 9.57 µg/mL) | MIC [3]: 2 µM (≈ 1.2 µg/mL)

C=C(CBr)[C@@H]1CC[C@]2(COC(C)=O)CC[C@]3(C)[C@H](CC[C@@H]4[C@@]5(C)CCCNC(C)(C)[C@@H]5CC[C@]43C)[C@@H]12 [Compound 14]
MIC [1]: > 32 µM | MIC [2, 11]: > 64 µM | MIC [3]: 0.0625 µM (≈ 0.0352 µg/mL)

A-azepano-28-cinnamoyloxybetulin
MBC against MTB H37Rv [7]: 4 µM | MIC against MTB H37Rv [7]: 2 µM

C=C(CN=[N+]=[N-])[C@@H]1CC[C@]2(COC(C)=O)CC[C@]3(C)[C@H](CC[C@@H]4[C@@]5(C)CCCNC(C)(C)[C@@H]5CC[C@]43C)[C@@H]12 [Compound 15]
MIC [1]: > 32 µM | MIC [2, 11]: > 64 µM | MIC [3]: 64 µM (≈ 33.6 µg/mL)

NCC[C@H](O)C(=O)N[C@@H]1C[C@H](N)[C@@H](O[C@H]2O[C@H](CN)[C@@H](O)[C@H](O)[C@H]2O)[C@H](O)[C@H]1O[C@H]1O[C@H](CO)[C@@H](O)[C@H](N)[C@H]1O [Amikacin, reference compound]
MIC [2, 11]: 8 µM (≈ 4.68 µg/mL)

CC[C@H]1OC(=O)[C@H](C)[C@@H](O[C@H]2C[C@@](C)(OC)[C@@H](O)[C@H](C)O2)[C@H](C)[C@@H](O[C@@H]2O[C@H](C)C[C@H](N(C)C)[C@H]2O)[C@](C)(OC)C[C@@H](C)C(=O)[C@H](C)[C@@H](O)[C@]1(C)O [Clarithromycin, reference compound]
MIC [2, 11]: 4 µM (≈ 2.99 µg/mL) | MIC [3]: 0.125 µM (≈ 0.0935 µg/mL) | IC90 [4, 12]: 8 µM | IC90 [5, 13]: 128 µM

CC(C)=C1CCC=C2CC[C@]3(C)[C@H](CC[C@@H]4[C@@]5(C)CCCNC(C)(C)[C@@H]5CC[C@]43C)[C@H]21 [Compound 18]
MIC [1]: 16 µM (≈ 6.78 µg/mL) | MIC [2, 11]: 32 µM (≈ 13.6 µg/mL) | MIC [3]: 4 µM (≈ 1.69 µg/mL) | IC90 [4, 12]: 128 µM | IC90 [5, 13]: > 128 µM

C=C(C)[C@@H]1CC[C@]2(C=NNC(=O)c3ccncc3)CC[C@]3(C)[C@H](CC[C@@H]4[C@@]5(C)CCCNC(C)(C)[C@@H]5CC[C@]43C)[C@@H]12 [Compound 7]
MIC [2, 11]: 8 µM (≈ 4.47 µg/mL) | MIC [3]: 4 µM (≈ 2.24 µg/mL) | IC90 [4, 12]: 128 µM | IC90 [5, 13]: > 128 µM | FIC value with Rifampin [6]: 1.0 Additive | FIC value with Ethambutol ([6]; combination with Ethambutol): 1.0 | FIC value with Isoniazid ([6]; combination with Isoniazid): 0.8
